Data taken from ChEMBL document CHEMBL1201862, “PubChem BioAssay data set” (2004).
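Values below derive from 48-hour exposures of cells grown in 96-well plates, with endpoints linearly interpolated between the two concentrations bracketing the appropriate inhibition level. Here, GI50 denotes the concentration required for 50% inhibition of growth.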 The source made the active and inactive calls. Cut-off read from the data, not from the text of the source: active = GI50 up to about 1.1 µM and inactive = higher.

Experiments:
Assay in all cases: DTP human tumour cell line panel, 48 h
SN12C = test system: SN12C
UACC-62 = test system: UACC-62
OVCAR-4 = test system: OVCAR-4
IGROV-1 = test system: IGROV-1
EKVX = test system: EKVX
CAKI-1 = test system: CAKI-1
NCI/ADR-RES = test system: NCI/ADR-RES
SK-OV-3 = test system: SK-OV-3
Hs-578T = test system: Hs-578T
LOX IMVI = test system: LOX IMVI
SF-539 = test system: SF-539
SK-MEL-2 = test system: SK-MEL-2
NCI-H226 = test system: NCI-H226
MDA-N = test system: MDA-N
OVCAR-3 = test system: OVCAR-3
MCF7 = test system: MCF7
SR = test system: SR
HCT-116 = test system: HCT-116
DU-145 = test system: DU-145
KM12 = test system: KM12

| Compound | GI50 (SN12C) | GI50 (UACC-62) | GI50 (OVCAR-4) | GI50 (IGROV-1) | GI50 (EKVX) | GI50 (CAKI-1) | GI50 (NCI/ADR-RES) | GI50 (SK-OV-3) | GI50 (Hs-578T) | GI50 (LOX IMVI) | GI50 (SF-539) | GI50 (SK-MEL-2) | GI50 (NCI-H226) | GI50 (MDA-N) | GI50 (OVCAR-3) | GI50 (MCF7) | GI50 (SR) | GI50 (HCT-116) | GI50 (DU-145) | GI50 (KM12) |
| --- | --- | --- | --- | --- | --- | --- | --- | --- | --- | --- | --- | --- | --- | --- | --- | --- | --- | --- | --- | --- |
| CC(C)(C)C#CI1OC(=O)c2ccccc21 | 5.2 µM (inactive) | 4.08 µM (inactive) | 2.72 µM (inactive) | 3.47 µM (inactive) | 4.89 µM (inactive) | 3.11 µM (inactive) | 5.52 µM (inactive) | 11.4 µM (inactive) | 8.75 µM (inactive) | 1.09 µM (active) | 2.82 µM (inactive) | 10.7 µM (inactive) | 4.63 µM (inactive) | 4.17 µM (inactive) | 2.99 µM (inactive) | 4.03 µM (inactive) | 0.74 µM (active) | 2.48 µM (inactive) | 6.08 µM (inactive) | 6.85 µM (inactive) |
| O=C(CCC=C(S(=O)(=O)c1ccccc1)S(=O)(=O)c1ccccc1)c1ccccc1 | 3.26 µM (inactive) | 6.92 µM (inactive) | 9.33 µM (inactive) | 12.3 µM (inactive) | 12.7 µM (inactive) | 5.96 µM (inactive) | 4.06 µM (inactive) | 25.4 µM (inactive) | 5.22 µM (inactive) | 3.26 µM (inactive) | 2.96 µM (inactive) | 2.38 µM (inactive) | 17.4 µM (inactive) | 3.69 µM (inactive) | 4.27 µM (inactive) | 4.47 µM (inactive) | 3.01 µM (inactive) | 3.42 µM (inactive) | 5.64 µM (inactive) | 10.9 µM (inactive) |
| COc1cc2cc(c1Cl)N(C)C(=O)C[C@H](OC(=O)[C@H](C)N(C)C(C)=O)[C@]1(C)O[C@H]1[C@H](C)[C@@H]1C[C@@](O)(NC(=O)O1)[C@H](OC)/C=C/C=C(/C)C2 | 0.0203 µM (active) | 0.0337 µM (active) | 0.794 µM (active) | 0.0239 µM (active) | 0.355 µM (active) | 0.0531 µM (active) | 0.0975 µM (active) | 0.0444 µM (active) | 0.0219 µM (active) | 0.0153 µM (active) | 0.015 µM (active) | 0.0491 µM (active) | 0.0435 µM (active) | 0.0131 µM (active) | 0.0127 µM (active) | 0.018 µM (active) | 0.0156 µM (active) | 0.0143 µM (active) | 0.00135 µM (active) | 0.0149 µM (active) |
| CCC(C)OC(=O)/C(Br)=C1/OC(=O)c2ccccc2-c2ccccc21 (configuration not stated) | 34.2 µM (inactive) | 19.4 µM (inactive) | 62.5 µM (inactive) | > 10 µM (inactive) | > 100 µM (inactive) | 43.4 µM (inactive) | 20.4 µM (inactive) | 45.6 µM (inactive) | 45.4 µM (inactive) | 18.2 µM (inactive) | 24 µM (inactive) | 24.2 µM (inactive) | 55.2 µM (inactive) | 32.6 µM (inactive) | 27.4 µM (inactive) | 41 µM (inactive) | > 10 µM (inactive) | 17.6 µM (inactive) | > 100 µM (inactive) | 23.8 µM (inactive) |
| Cc1[nH]n(C(=N)N)c(=O)c1CCO | > 100 µM (inactive) | > 100 µM (inactive) | > 100 µM (inactive) | > 100 µM (inactive) |  | > 100 µM (inactive) | 2.76 µM (inactive) | > 100 µM (inactive) | > 100 µM (inactive) | > 100 µM (inactive) | > 100 µM (inactive) | > 100 µM (inactive) | > 100 µM (inactive) | > 100 µM (inactive) | > 100 µM (inactive) | > 100 µM (inactive) | 17.1 µM (inactive) | > 100 µM (inactive) | > 100 µM (inactive) |  |
| Cc1cc(=O)oc2c(CNC(CC(C)C)C(=O)O)c(O)ccc12 (configuration not stated) | > 100 µM (inactive) | > 100 µM (inactive) | > 100 µM (inactive) | > 100 µM (inactive) | > 100 µM (inactive) | > 100 µM (inactive) | > 100 µM (inactive) | > 100 µM (inactive) | > 100 µM (inactive) | > 100 µM (inactive) | > 100 µM (inactive) | > 100 µM (inactive) | > 100 µM (inactive) | > 100 µM (inactive) | > 100 µM (inactive) | > 100 µM (inactive) | > 100 µM (inactive) | > 100 µM (inactive) | > 100 µM (inactive) | > 100 µM (inactive) |
| O=C(CC(C(=O)c1cccs1)c1cccs1)c1ccsc1 (configuration not stated) | 39.4 µM (inactive) | 37.5 µM (inactive) | 67.1 µM (inactive) | > 100 µM (inactive) | 66.1 µM (inactive) | > 100 µM (inactive) | 32.7 µM (inactive) | 50.1 µM (inactive) | > 100 µM (inactive) | 10.2 µM (inactive) | 67 µM (inactive) | 35.7 µM (inactive) | > 100 µM (inactive) | 19.4 µM (inactive) |  | 32.8 µM (inactive) | 37.2 µM (inactive) | 36.6 µM (inactive) | > 100 µM (inactive) | 34 µM (inactive) |
| C=CCN1C(=O)/C(=C/c2ccc(C)cc2)NC1=S | > 100 µM (inactive) | 60.1 µM (inactive) | 57 µM (inactive) | > 100 µM (inactive) | 37.8 µM (inactive) | > 100 µM (inactive) | 81.7 µM (inactive) | > 100 µM (inactive) | > 100 µM (inactive) | 63.2 µM (inactive) | > 100 µM (inactive) | > 100 µM (inactive) | 88.3 µM (inactive) | 94.8 µM (inactive) | > 100 µM (inactive) | 70.6 µM (inactive) | 85.9 µM (inactive) | > 100 µM (inactive) | > 100 µM (inactive) | 97.7 µM (inactive) |
| O=C(O)CCNc1ncc2c(n1)-c1ccccc1OC2 | > 100 µM (inactive) | > 100 µM (inactive) | > 100 µM (inactive) | 36.2 µM (inactive) | 61.7 µM (inactive) | > 100 µM (inactive) | > 100 µM (inactive) | > 100 µM (inactive) | 61 µM (inactive) | > 100 µM (inactive) | > 100 µM (inactive) | > 100 µM (inactive) | > 100 µM (inactive) | > 100 µM (inactive) | > 100 µM (inactive) | > 100 µM (inactive) | > 100 µM (inactive) | > 100 µM (inactive) | > 100 µM (inactive) | > 100 µM (inactive) |
| O=C(O)CN1CCNCCN(CC(=O)O)CCNCC1 | > 100 µM (inactive) | 38.8 µM (inactive) | > 100 µM (inactive) | 24.3 µM (inactive) | > 60.3 µM (inactive) | > 100 µM (inactive) | > 100 µM (inactive) | 20.1 µM (inactive) | > 24.1 µM (inactive) | 79.4 µM (inactive) | > 100 µM (inactive) | > 100 µM (inactive) | > 64.7 µM (inactive) | 10.9 µM (inactive) | > 100 µM (inactive) | 28.2 µM (inactive) | 5.14 µM (inactive) | 4.75 µM (inactive) | > 100 µM (inactive) | 5.75 µM (inactive) |
| CN(C)CCN(C)c1ccc2c(=O)n(CCN(C)C)c(=O)n3c4ccccc4c(=O)c1c23 | 0.0964 µM (active) | 0.993 µM (active) | 0.364 µM (active) | 0.426 µM (active) | 1.66 µM (inactive) | < 0.026 µM (active) | 2.29 µM (inactive) | 1.55 µM (inactive) | 2.12 µM (inactive) | 0.35 µM (active) | 0.324 µM (active) | 2.87 µM (inactive) | 0.29 µM (active) | 0.859 µM (active) | 1.89 µM (inactive) | 0.345 µM (active) | < 0.01 µM (active) | 0.194 µM (active) | 0.128 µM (active) | 1.26 µM (inactive) |
| CN(C)c1ccc(C(=N/N=C2\C(=O)Nc3ccccc32)c2ccc(N(C)C)cc2)cc1 | 1.67 µM (inactive) | 0.37 µM (active) | 1.94 µM (inactive) | 0.303 µM (active) | 5.15 µM (inactive) | 0.39 µM (active) | 0.218 µM (active) | 1.37 µM (inactive) | 0.836 µM (active) | 0.748 µM (active) | 0.313 µM (active) | 0.248 µM (active) | 6.89 µM (inactive) | 0.0614 µM (active) | 0.513 µM (active) | 0.266 µM (active) | 0.0262 µM (active) | 0.33 µM (active) | 1.91 µM (inactive) | 0.278 µM (active) |
| NC(=O)c1ccc(S(=O)(=NS(=O)(=O)c2ccccc2)c2ccc(C(N)=O)cc2)cc1 | > 100 µM (inactive) | > 100 µM (inactive) | > 100 µM (inactive) | > 100 µM (inactive) | > 100 µM (inactive) | > 100 µM (inactive) | > 100 µM (inactive) | > 100 µM (inactive) | > 100 µM (inactive) | > 100 µM (inactive) | > 100 µM (inactive) | > 100 µM (inactive) | > 100 µM (inactive) | > 100 µM (inactive) | > 100 µM (inactive) | > 100 µM (inactive) | > 100 µM (inactive) | > 100 µM (inactive) | > 100 µM (inactive) | > 100 µM (inactive) |
| NC(C(=O)O)C(O)c1c[nH]cn1 (configuration not stated) | > 100 µM (inactive) | > 100 µM (inactive) | > 100 µM (inactive) | > 100 µM (inactive) | > 100 µM (inactive) | > 100 µM (inactive) | > 100 µM (inactive) | > 100 µM (inactive) | > 100 µM (inactive) | > 100 µM (inactive) | > 100 µM (inactive) | > 100 µM (inactive) | > 100 µM (inactive) | > 100 µM (inactive) | > 100 µM (inactive) | > 100 µM (inactive) | > 100 µM (inactive) | > 100 µM (inactive) | > 100 µM (inactive) | > 100 µM (inactive) |
